Data as given in ChEMBL document CHEMBL3885881, “DrugMatrix”.

Species: Rattus norvegicus
Assay: DrugMatrix - Regimen: Daily Repeat
Assay type: toxicity, organism-based, Sprague-Dawley
Parameters: regimen Daily Repeat, gender Male, age 6-8 weeks
Details: in vivo, iv, 0 mg/kg, dose level Control, vehicle 100 % SALINE; for ABSOLUTE BASOPHIL / ABSOLUTE EOSINOPHIL / ABSOLUTE LYMPHOCYTE / ABSOLUTE MONOCYTE / ABSOLUTE SEGMENTED NEUTROPHIL / BASOPHIL / EOSINOPHIL / ERYTHROCYTE COUNT / HEMATOCRIT / HEMOGLOBIN / LEUKOCYTE COUNT / LYMPHOCYTE / MEAN CORPUSCULAR HEMOGLOBIN / MEAN CORPUSCULAR HEMOGLOBIN CONCENTRATION / MEAN CORPUSCULAR VOLUME / MONOCYTE / NEUTROPHIL / NUCLEATED RED BLOOD CELLS / PLATELET COUNT: tissue Blood; for ALANINE AMINOTRANSFERASE / ALBUMIN / ALKALINE PHOSPHATASE / ASPARTATE AMINOTRANSFERASE / BLOOD UREA NITROGEN / CARBON DIOXIDE / CHLORIDE / CHOLESTEROL / CREATINE PHOSPHOKINASE / CREATININE / GLUCOSE / LACTATE DEHYDROGENASE / LIPASE / PHOSPHORUS / POTASSIUM / SODIUM / TOTAL BILIRUBIN / TOTAL PROTEIN / URIC ACID: tissue Plasma

SMILES: C[N+](C)(C)CCOC(=O)CCC(=O)OCC[N+](C)(C)C.[Cl-].[Cl-] [SUCCINYLCHOLINE CHLORIDE]
- ABSOLUTE BASOPHIL (72 h, time 3 day): 0 CELLS/uL
- ABSOLUTE EOSINOPHIL (72 h, time 3 day): 193.5 CELLS/uL
- ABSOLUTE LYMPHOCYTE (72 h, time 3 day): 15717.5 CELLS/uL
- ABSOLUTE MONOCYTE (72 h, time 3 day): 389.33 CELLS/uL
- ABSOLUTE SEGMENTED NEUTROPHIL (72 h, time 3 day): 1883 CELLS/uL
- BASOPHIL (72 h, time 3 day): 0%
- EOSINOPHIL (72 h, time 3 day): 1.17%
- ERYTHROCYTE COUNT (72 h, time 3 day): 5.68 x10E6/uL
- HEMATOCRIT (72 h, time 3 day): 35.83%
- HEMOGLOBIN (72 h, time 3 day): 13.48 G/DL
- LEUKOCYTE COUNT (72 h, time 3 day): 18.18 x10E3/uL
- LYMPHOCYTE (72 h, time 3 day): 86.67%
- MEAN CORPUSCULAR HEMOGLOBIN (72 h, time 3 day): 23.8 pg
- MEAN CORPUSCULAR HEMOGLOBIN CONCENTRATION (72 h, time 3 day): 37.68 G/DL
- MEAN CORPUSCULAR VOLUME (72 h, time 3 day): 63.27 fL
- MONOCYTE (72 h, time 3 day): 2.17%
- NEUTROPHIL (72 h, time 3 day): 10%
- NUCLEATED RED BLOOD CELLS (72 h, time 3 day): 0 /100WBC
- PLATELET COUNT (72 h, time 3 day): 1186.33 x10E3/uL
- ALANINE AMINOTRANSFERASE (72 h, time 3 day): 68.5 u/L
- ALBUMIN (72 h, time 3 day): 4.37 G/DL
- ALKALINE PHOSPHATASE (72 h, time 3 day): 396.33 u/L
- ASPARTATE AMINOTRANSFERASE (72 h, time 3 day): 92.5 u/L
- BLOOD UREA NITROGEN (72 h, time 3 day): 18 mg/dL
- CARBON DIOXIDE (72 h, time 3 day): 24.33 mmol/L
- CHLORIDE (72 h, time 3 day): 102.4 MEQ/L
- CHOLESTEROL (72 h, time 3 day): 67.17 mg/dL
- CREATINE PHOSPHOKINASE (72 h, time 3 day): 378.67 u/L
- CREATININE (72 h, time 3 day): 0.19 mg/dL
- GLUCOSE (72 h, time 3 day): 178.33 mg/dL
- LACTATE DEHYDROGENASE (72 h, time 3 day): 245.17 u/L
- LIPASE (72 h, time 3 day): 9.2 u/L
- PHOSPHORUS (72 h, time 3 day): 12.37 mg/dL
- POTASSIUM (72 h, time 3 day): 6.48 MEQ/L
- SODIUM (72 h, time 3 day): 143.28 MEQ/L
- TOTAL BILIRUBIN (72 h, time 3 day): 0.23 mg/dL
- TOTAL PROTEIN (72 h, time 3 day): 5.65 G/DL
- URIC ACID (72 h, time 3 day): 1.6 mg/dL
- ABSOLUTE BASOPHIL (120 h, time 5 day): 0 CELLS/uL
- ABSOLUTE EOSINOPHIL (120 h, time 5 day): 27.5 CELLS/uL
- ABSOLUTE LYMPHOCYTE (120 h, time 5 day): 13593.17 CELLS/uL
- ABSOLUTE MONOCYTE (120 h, time 5 day): 576 CELLS/uL
- ABSOLUTE SEGMENTED NEUTROPHIL (120 h, time 5 day): 1836.67 CELLS/uL
- BASOPHIL (120 h, time 5 day): 0%
- EOSINOPHIL (120 h, time 5 day): 0.17%
- ERYTHROCYTE COUNT (120 h, time 5 day): 5.99 x10E6/uL
- HEMATOCRIT (120 h, time 5 day): 37.42%
- HEMOGLOBIN (120 h, time 5 day): 13.78 G/DL
- LEUKOCYTE COUNT (120 h, time 5 day): 16.03 x10E3/uL
- LYMPHOCYTE (120 h, time 5 day): 85.17%
- MEAN CORPUSCULAR HEMOGLOBIN (120 h, time 5 day): 23.08 pg
- MEAN CORPUSCULAR HEMOGLOBIN CONCENTRATION (120 h, time 5 day): 36.83 G/DL
- MEAN CORPUSCULAR VOLUME (120 h, time 5 day): 62.6 fL
- MONOCYTE (120 h, time 5 day): 3.5%
- NEUTROPHIL (120 h, time 5 day): 11.17%
- NUCLEATED RED BLOOD CELLS (120 h, time 5 day): 0 /100WBC
- PLATELET COUNT (120 h, time 5 day): 1352.5 x10E3/uL
- ALANINE AMINOTRANSFERASE (120 h, time 5 day): 49.83 u/L
- ALBUMIN (120 h, time 5 day): 4.25 G/DL
- ALKALINE PHOSPHATASE (120 h, time 5 day): 331.33 u/L
- ASPARTATE AMINOTRANSFERASE (120 h, time 5 day): 86.17 u/L
- BLOOD UREA NITROGEN (120 h, time 5 day): 19.5 mg/dL
- CARBON DIOXIDE (120 h, time 5 day): 26.67 mmol/L
- CHLORIDE (120 h, time 5 day): 103 MEQ/L
- CHOLESTEROL (120 h, time 5 day): 67.5 mg/dL
- CREATINE PHOSPHOKINASE (120 h, time 5 day): 346.17 u/L
- CREATININE (120 h, time 5 day): 0.22 mg/dL
- GLUCOSE (120 h, time 5 day): 170.67 mg/dL
- LACTATE DEHYDROGENASE (120 h, time 5 day): 405.5 u/L
- LIPASE (120 h, time 5 day): 8.83 u/L
- PHOSPHORUS (120 h, time 5 day): 11.3 mg/dL
- POTASSIUM (120 h, time 5 day): 6.06 MEQ/L
- SODIUM (120 h, time 5 day): 143.4 MEQ/L
- TOTAL BILIRUBIN (120 h, time 5 day): 0.17 mg/dL
- TOTAL PROTEIN (120 h, time 5 day): 6.22 G/DL
- URIC ACID (120 h, time 5 day): 1.63 mg/dL
